Earlier results on 1 compound are cited in paper PMC13566764 (International Journal of Molecular Sciences, 2026).

On the set-up of this series: method as in https://pubchem.ncbi.nlm.nih.gov. Conditions: ref https://pubchem.ncbi.nlm.nih.gov.

As a reminder, the pKa is the negative logarithm of the acid dissociation constant. As to `O=C1NC(=O)C(c2ccccc2)(c2ccccc2)N1` [Phenytoin, phenytoin], the pKa is reported as 8.33.
